# From patent publication US9562033B2, “Inhibitors of viral replication, their process of preparation and their therapeutical uses” (LABORATOIRE BIODIM, priority 2012, dated 2017)
# pEC50: −log10 of the molar value.
# System: NL4-3 strain of HIV-1
# Assay: HIV-1 replication inhibition: cyto-protection of MT4 cells infected with NL4-3 virus (CellTiter-Glo viability assay)
# Assay type: cell-based
# Conditions: Human immunodeficiency virus 1, NL43, 120 h, concentration leading to 50% of cyto-protection, 5 days incubation
# Description: The antiviral activity, particularly against HIV, of compounds according to the invention is evaluated by the protocol described below.
# Preparation of Virus Stock of the NL4-3 Strain of HIV-1
# The virus was prepared as described in Lopez et al (Lopez et al, Proc Natl Acad Sci USA., 2006, 103(40):14947-52, by transfecting 2×10^6 293 T cells (CRL-1573, ATCC) with following modifications: 6 μg of NL4-3 proviral DNA molecular clone were mixed with Fugene 6 transfection reagent from Roche, and used according to manufacturer's instructions. Forty eight hours later, transfected cell supernatants were harvested, filtered through 0.45-μm-pore-size filters, quantified for HIV-1 p24 antigen by using a Innotest HIV antigen mAb assay (Ingen) according to manufacturer's instructions, and used in infection experiments.
# Preparation of Compounds:
# Serial dilutions of compounds to be tested were prepared in complete RPMI medium from 10 mM DMSO stock solutions, and distributed in a volume of 20 µl in 96 well Falcon 353072 Microtest™ tissue culture plate, in order to get 0.5% DMSO final concentration in each well, after the addition of infected cells. Control wells contained also 0.5% DMSO final concentration but no compound.
# MT4 cells (from the NIH AIDS Research and Reference Reagent Program) in RPMI complete medium were counted (10×10^6 cells per well in Falcon 353047 Multiwell™ 24 well) and infected for 2 hours at 37°, at a multiplicity of infection (moi) of 0.0001-0.00001. Cells were then centrifuged 3 min at 3000 rpm, and washed two times in 1 ml PBS to remove viruses that have not entered in cells. Infected cells were resuspended in complete RPMI at 1.25×10^6 cells/ml, and 80 µl of infected cells were distributed in each well containing compounds to be tested or control wells. The plates were then incubated at 37° for 5 days.
# Assay Used to Measure the Inhibition of HIV Replication by the Compounds
# (according to Gregg S. Jones et al., Antimicrobial Agents and Chemotherapy, 2009, 53 (3): 1194-1203).
# After 5 days of incubation, […] of CellTiter-Glo reagent (Promega Biosciences, Inc., Madison Wis., USA) were added to each well. Cell lysis was carried out at room temperature during 10 min, 150 μl of lysates were transferred in Packard Optiplate 96 well, and luminescence was read on a Fluoroskan (Thermo Scientific).
row,Compound,pEC50
1,"Cc1sc(C2=CCCCC2)c(C2=CCC(C)(C)CC2)c1C(OC(C)(C)C)C(=O)O (stereo not shown) [Example 57, 2-(tert-butoxy)-2-[4-(4,4-dimethylcyclohex-1-en-1-yl)-5-(cyclohexen-1-yl)-2-methylthiophen-3-yl]acetic acid]",5.92
2,"Cc1sc(-c2ccc(C(N)=O)cc2)c(C2=CCC(C)(C)CC2)c1C(OC(C)(C)C)C(=O)O (stereo not shown) [Example 27, 2-(tert-butoxy)-2-[5-(4-carbamoylphenyl)-4-(4,4-dimethylcyclohex-1-en-1-yl)-2-methylthiophen-3-yl]acetic acid]",7.05
3,"Cc1sc(-c2ccnc(F)c2)c(-c2ccc3c(c2)CCCO3)c1C(OC(C)(C)C)C(=O)O (stereo not shown) [Example 13, 2-(tert-butoxy)-2-[4-(3,4-dihydro-2H-1-benzopyran-6-yl)-5-(2-fluoropyridin-4-yl)-2-methylthiophen-3-yl) acetic acid]",6.82
4,Cc1sc(-c2ccc(=O)n(CC3CC3)c2)c(C2=CCC(C)(C)CC2)c1C(OC(C)(C)C)C(=O)O (stereo not shown) [Example 37],6.49
5,"Cc1sc(-c2ccsc2)c(-c2ccc3c(c2)CCCO3)c1C(OC(C)(C)C)C(=O)O (stereo not shown) [Example 20, 2-(tert-butoxy)-2-[4-(3,4-dihydro-2H-1-benzopyran-6-yl)-2-methyl-5-(thiophen-3-yl)thiophen-3-yl]acetic acid]",6.66
6,"CNC(=O)c1cccc(-c2sc(C)c(C(OC(C)(C)C)C(=O)O)c2C2=CCC(C)(C)CC2)c1 (stereo not shown) [Example 41, 2-(tert-butoxy)-2-[4-(4,4-dimethylcyclohex-1-en-1-yl)-2-methyl-5-(methylaminocarbonylphen-3-yl)thiophen-3-yl]acetic acid]",7.30
7,"Cc1sc(-c2ccccc2)c(C2=CCC(C)(C)c3cccnc32)c1C(OC(C)(C)C)C(=O)O (stereo not shown) [Example 67, 2-(tert-butoxy)-2-[4-(5,5-dimethyl-5,6-dihydroquinolin-8-yl)-2-methyl-5-phenylthiophen-3-yl]acetic acid]",5.64
8,"CC(=O)NCc1ccc(-c2sc(C)c(C(OC(C)(C)C)C(=O)O)c2-c2ccc3c(c2)CCCO3)cc1 (stereo not shown) [Example 21, 2-(tert-butoxy)-2-[4-(3,4-dihydro-2H-1-benzopyran-6-yl)-5-[4-(acetamidomethyl)phenyl]-2-methylthiophen-3-yl]acetic acid]",6.24
9,"Cc1sc(-c2cnc3c(c2)CCCO3)c(-c2ccc3c(c2)CCCO3)c1C(OC(C)(C)C)C(=O)O (stereo not shown) [Example 4, (tert-butoxy)[4-(3,4-dihydro-2H-1-benzopyran-6-yl)-2-methyl-5-{2H,3H,4H-pyrano[2,3-b]pyridin-6-yl}thiophen-3-yl]acetic acid]",6.74
10,"Cc1sc(-c2nccs2)c(C2=CCC(C)(C)CC2)c1C(OC(C)(C)C)C(=O)O (stereo not shown) [Example 45, 2-(tert-butoxy)-2-[4-(4,4-dimethylcyclohex-1-en-1-yl)-2-methyl-5-(1,3-thiazol-2-yl)thiophen-3-yl]acetic acid]",6.36
11,"Cc1sc(-c2ccncc2)c(-c2ccc3c(c2)CCCO3)c1C(OC(C)(C)C)C(=O)O (stereo not shown) [Example 3, 2-(tert-butoxy)-2-[4-(3,4-dihydro-2H-1-benzopyran-6-yl)-2-methyl-5-(pyridin-4-yl)thiophen-3-yl]acetic acid]",7.00
12,"Cc1sc(-c2cc(C(F)(F)F)nn2C)c(-c2ccc3c(c2)CCCO3)c1C(OC(C)(C)C)C(=O)O (stereo not shown) [Example 83, 2-(tert-butoxy)-2-[4-(3,4-dihydro-2H-1-benzopyran-6-yl)-2-methyl-5-[1-methyl-3-(trifluoromethyl)-1H-pyrazol-5-yl]thiophen-3-yl]acetic acid]",5.77
13,"Cc1cccnc1-c1sc(C)c(C(OC(C)(C)C)C(=O)O)c1C1=CCC(C)(C)CC1 (stereo not shown) [Example 47, 2-(tert-butoxy)-2-[4-(4,4-dimethylcyclohex-1-en-1-yl)-2-methyl-5-(3-methylpyridin-2-yl)thiophen-3-yl]acetic acid]",6.29
14,"Cc1ccc(-c2sc(C)c(C(OC(C)(C)C)C(=O)O)c2C2=CCC(C)(C)CC2)nc1 (stereo not shown) [Example 46, 2-(tert-butoxy)-2-[4-(4,4-dimethylcyclohex-1-en-1-yl)-2-methyl-5-(5-methylpyridin-2-yl)thiophen-3-yl]acetic acid]",6.35
15,"Cc1cccc(-c2sc(C)c(C(OC(C)(C)C)C(=O)O)c2C2=CCC(C)(C)CC2)n1 (stereo not shown) [Example 73, 2-(tert-butoxy)-2-{2-methyl-4-[4,4-dimethylcyclohex-1-en-1-yl]-5-(6-methylpyridin-2-yl)thiophen-3-yl}acetic acid]",5.16
16,"Cc1sc(-c2ccsn2)c(-c2ccc3c(c2)CCCO3)c1C(OC(C)(C)C)C(=O)O (stereo not shown) [Example 86, 2-(tert-butoxy)-2-[4-(3,4-dihydro-2H-1-benzopyran-6-yl)-2-methyl-5-(1,2-thiazol-3-yl)thiophen-3-yl]acetic acid]",6.57
17,"Cc1sc(-c2ccncc2)c(C2=CCC(C)(C)CC2)c1C(OC(C)(C)C)C(=O)O (stereo not shown) [Example 5, 2-(tert-butoxy)-2-[4-(4,4-dimethylcyclohex-1-en-1-yl)-2-methyl-5-(pyridin-4-yl)thiophen-3-yl]acetic acid]",7.39
18,"Cc1sc(-n2cccn2)c(-c2ccc3c(c2)CCCO3)c1C(OC(C)(C)C)C(=O)O (stereo not shown) [Example 85, 2-(tert-butoxy)-2-[4-(3,4-dihydro-2H-1-benzopyran-6-yl)-2-methyl-5-(1H-pyrazol-1-yl)thiophen-3-yl]acetic acid]",5.72
19,"Cc1sc(-c2cnn(C)c2)c(-c2ccc3c(c2)CCCO3)c1C(OC(C)(C)C)C(=O)O (stereo not shown) [Example 88, 2-(tert-butoxy)-2-[4-(3,4-dihydro-2H-1-benzopyran-6-yl)-2-methyl-5-(1-methyl-1H-pyrazol-4-yl)thiophen-3-yl]acetic acid]",5.80
20,"CC(=O)Nc1ccc(-c2sc(C)c(C(OC(C)(C)C)C(=O)O)c2C2=CCC(C)(C)CC2)cc1 (stereo not shown) [Example 33, 2-(tert-butoxy)-2-[4-(4,4-dimethylcyclohex-1-en-1-yl)-2-methyl-5-(acetamidophen-4-yl)thiophen-3-yl]acetic acid]",6.64
21,"Cc1sc(-n2cccn2)c(C2=CCC(C)(C)CC2)c1C(OC(C)(C)C)C(=O)O (stereo not shown) [Example 50, 2-(tert-butoxy)-2-[4-(4,4-dimethylcyclohex-1-en-1-yl)-2-methyl-5-(1H-pyrazol-1-yl)thiophen-3-yl]acetic acid]",6.11
22,"Cc1sc(-c2ccncc2)c(C2=CCC(C(C)C)CC2)c1C(OC(C)(C)C)C(=O)O (stereo not shown) [Example 6, 2-(tert-butoxy)-2-{2-methyl-4-[4-(propan-2-yl)cyclohex-1-en-1-yl]-5-(pyridin-4-yl)thiophen-3-yl}acetic acid]",6.80
23,"Cc1sc(N2CCCC2=O)c(C2=CCC(C)(C)CC2)c1C(OC(C)(C)C)C(=O)O (stereo not shown) [Example 68, 2-(tert-butoxy)-2-{2-methyl-4-[4,4-dimethylcyclohex-1-en-1-yl]-5-(N-pyrrolidinone)thiophen-3-yl}acetic acid]",5.72
24,"Cc1sc(-c2cccc(C(N)=O)c2)c(C2=CCC(C)(C)CC2)c1C(OC(C)(C)C)C(=O)O (stereo not shown) [Example 31, 2-(tert-butoxy)-2-[4-(4,4-dimethylcyclohex-1-en-1-yl)-2-methyl-5-(aminocarbonylphen-3-yl)thiophen-3-yl]acetic acid]",7.40
25,"Cc1sc(-c2ccccc2)c(-c2ccc3c4c(ccnc24)CCO3)c1C(OC(C)(C)C)C(=O)O (stereo not shown) [Example 61, 2-(tert-butoxy)-2-[2-methyl-4-(2,3-dihydropyrano[4,3,2-de]quinolin-7-yl)-5-phenyl-thiophen-3-yl]acetic acid]",6.68
26,"Cc1sc(C2=CCOCC2)c(-c2ccc3c(c2)CCCO3)c1C(OC(C)(C)C)C(=O)O (stereo not shown) [Example 78, 2-(tert-butoxy)-2-[4-(3,4-dihydro-2H-1-benzopyran-6-yl)-5-(3,6-dihydro-2H-pyran-4-yl)-2-methylthiophen-3-yl]acetic acid]",5.37
27,"Cc1sc(-c2ccc(=O)n(C)c2)c(-c2ccc3c(c2)CCCO3)c1C(OC(C)(C)C)C(=O)O (stereo not shown) [Example 19, 2-(tert-butoxy)-2-[4-(3,4-dihydro-2H-1-benzopyran-6-yl)-2-methyl-5-(1-methyl-6-oxo-1,6-dihydropyridin-3-yl)thiophen-3-yl]acetic acid]",6.37
28,"CC(C)(C)OC(C(=O)O)c1c(C(F)(F)F)sc(-c2ccccc2)c1-c1ccc2c(c1)CCCO2 (stereo not shown) [Example 60, 2-(tert-butoxy)-2-[4-(3,4-dihydro-2H-1-benzopyran-6-yl)-5-phenyl-2-(trifluoromethyl)thiophen-3-yl]acetic acid]",6.30
